Experimental data reported in PubChem BioAssay (NCI).
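Tested at 5 concentrations; 48 h exposure; 96-well plates; endpoints linearly interpolated, else capped at highest concentration. At the TGI there is no net growth.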

Experiments:
Assay in all cases: NCI-60 cell line screen, 48 h
[1] = test system: K-562 leukemia
[2] = test system: A498 renal
[3] = test system: NCI-H226 lung
[4] = test system: SNB-75 CNS
[5] = test system: CAKI-1 renal
[6] = test system: SK-MEL-28 melanoma
[7] = test system: OVCAR-3 ovarian
[8] = test system: 786-0 renal
[9] = test system: RXF 393 renal
[10] = test system: MCF7 breast

| Compound | TGI [1] [µM] | TGI [2] [µM] | TGI [3] [µM] | TGI [4] [µM] | TGI [5] [µM] | TGI [6] [µM] | TGI [7] [µM] | TGI [8] [µM] | TGI [9] [µM] | TGI [10] [µM] |
| --- | --- | --- | --- | --- | --- | --- | --- | --- | --- | --- |
| CCOC(=O)c1cc(Br)c(-c2onc(C)c2Br)[nH]1 | > 100 | > 100 | > 100 | > 100 | > 100 | > 100 | > 100 | 59.3 | 38.7 | > 100 |
| CC(=O)OC[C@H]1On2nnnc2[C@H](OC(C)=O)[C@@H](OC(C)=O)[C@@H]1OC(C)=O | > 100 | > 100 | > 100 | > 100 | > 100 | > 100 | > 100 | > 100 | > 100 | > 100 |
| CC(=O)OCC1OC(n2c(C)c(C)c(C)c(C#N)c2=S)C(OC(C)=O)C(OC(C)=O)C1OC(C)=O (stereo not given) | > 100 | > 100 | > 100 | > 100 | > 100 | > 100 | > 100 | 93.1 | 57.6 | > 100 |
| CC1(C)CC[C@]2(C(=O)O)CC[C@]3(C)[C@H](C(=O)C=C4[C@@]5(C)C=C(C#N)C(=O)C(C)(C)[C@@H]5CC[C@]43C)[C@@H]2C1 | 27.1 | 0.977 | 4.02 | 2.84 | 3.46 | 2.35 | 0.785 | 3.39 | 1.5 | 5.14 |
| CC(C)Oc1cccc(N2C(Nc3ccccc3)=Nc3ccncc3S2(=O)=O)c1 | > 100 | 79.9 | 83.2 | > 100 | > 100 | 17.2 | 52.4 | 52.5 | 95.6 | > 100 |
| O=C(Nc1nn[nH]n1)c1nc(-c2ccccc2)cc(=O)[nH]1 | > 100 | > 100 | > 100 | > 100 | > 100 | > 100 | > 100 | > 100 | > 100 | > 100 |
| Cc1ccc(S(=O)(=O)NC(=O)C2=C3SCCN3C(=O)N(S(=O)(=O)c3ccc(C)cc3)C2c2ccccc2)cc1 (stereo not given) | > 100 | > 100 | > 100 | > 100 | > 100 | > 100 | 59.1 | > 100 | 78.7 | 90.7 |
| CCOc1cc2c(cc1O)C(O)C[C@@H]1[C@@H]2CC[C@]2(C)[C@@H](O)CC[C@@H]12 (stereo not given in full) | > 36.4 | 0.497 | > 100 | > 100 | > 100 | > 100 | > 100 | > 83 | 5.25 | > 100 |
| O=[Se](O)O | > 100 | > 100 | 2.48 | 7.55 | 97.1 | 26.8 | 10.7 | 7.35 | 10.3 | > 100 |
| CCN(CC)C(=O)CCN1CC1 | > 10 | > 10 | > 10 | > 10 | > 10 | > 10 | > 10 | > 10 | > 10 | > 10 |
| CC(C)=CCC[C@@H](C)C1=C(O)C(Nc2ccccc2I)=C(C)C(=O)C1=O | > 66.8 | 31.5 | 18.4 | 37.1 | 41.3 | > 75 | > 47.5 | > 58.7 | > 50 | > 75 |
| Cc1cc(S(=O)(=O)/N=C(/NN)Nc2ccc(Cl)cc2)c(S)cc1Cl | > 100 | 35.4 | 43.3 | 28.8 | 54.3 | 60.3 | 82.2 | 45.6 | 78.8 | 52 |
| NCCSCCC(=O)O | > 100 | 99.5 | > 100 | > 92.6 | > 100 | > 71.8 | > 100 | > 100 | > 100 | > 100 |
| O=c1c2nc(-c3ccccc3)oc2n(-c2ccccc2)c(=O)n1-c1ccccc1 | > 46.4 | > 31.6 | 44.1 | 31.2 | 18.2 | > 100 | > 46.4 | 31.7 | 34.8 | > 46.4 |
| O=C1/C(=C/c2cccc3ccccc23)CCc2ccc([N+](=O)[O-])cc21 | > 100 | > 100 | > 100 | 42.1 | > 100 | > 100 | 12.7 | 65.5 | 88.8 | 86.5 |
| CC1(C)C=C(/C=N/Nc2ccccc2)C(C#N)=C(O)C1(C#N)C#N | > 100 | > 100 | > 100 | > 100 | > 100 | > 100 | > 100 | > 100 | > 100 | > 100 |
